These results are taken from patent publication US7256208B2 (priority 2003, dated 2007).

One data set concerns the target T1, AR (Rattus norvegicus, UniProt P15207).
T1 sequence (P15207 1-902): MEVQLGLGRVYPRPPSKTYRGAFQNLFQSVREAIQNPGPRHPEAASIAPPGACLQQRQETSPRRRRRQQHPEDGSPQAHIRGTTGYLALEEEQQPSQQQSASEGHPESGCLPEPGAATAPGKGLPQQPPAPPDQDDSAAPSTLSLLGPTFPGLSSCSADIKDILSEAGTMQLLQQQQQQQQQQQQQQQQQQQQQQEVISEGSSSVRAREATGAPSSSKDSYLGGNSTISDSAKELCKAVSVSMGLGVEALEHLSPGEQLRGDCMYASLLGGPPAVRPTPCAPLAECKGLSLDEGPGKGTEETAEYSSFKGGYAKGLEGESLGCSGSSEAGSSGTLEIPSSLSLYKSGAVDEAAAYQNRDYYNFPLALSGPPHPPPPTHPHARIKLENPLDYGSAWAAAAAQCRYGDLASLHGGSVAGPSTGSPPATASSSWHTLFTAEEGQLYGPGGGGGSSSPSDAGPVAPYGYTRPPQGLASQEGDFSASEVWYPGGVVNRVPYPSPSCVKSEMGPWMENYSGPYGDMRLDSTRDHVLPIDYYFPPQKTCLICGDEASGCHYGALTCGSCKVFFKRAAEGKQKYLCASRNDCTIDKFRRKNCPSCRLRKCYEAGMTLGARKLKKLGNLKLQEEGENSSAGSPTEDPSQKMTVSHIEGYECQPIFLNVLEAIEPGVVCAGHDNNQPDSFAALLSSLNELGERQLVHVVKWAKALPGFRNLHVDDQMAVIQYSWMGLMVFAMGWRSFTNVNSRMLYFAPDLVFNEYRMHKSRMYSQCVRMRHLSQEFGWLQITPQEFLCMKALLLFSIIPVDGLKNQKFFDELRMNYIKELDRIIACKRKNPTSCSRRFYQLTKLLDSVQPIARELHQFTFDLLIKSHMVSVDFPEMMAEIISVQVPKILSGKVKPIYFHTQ
From the text: The activity of compounds of the present invention as AR agonists was investigated in an immature male rat model, a recognized test of anabolic effects in muscle and sustaining effects in sex organs for a given compound, as described in L. G. Hershberger et al., Proc. Soc. […] Biol. Med., 83, 175 (1953); B. L. Beyler et al, “Methods for evaluating anabolic and catabolic agents in laboratory animals”, J. Amer. Med. Women's Ass., 23, 708 (1968); H. Fukuda et al., “Investigations of the levator ani muscle as an anabolic steroid assay”, Nago Dai. Yak. Ken. Nem. 14, 84 (1966) the disclosures of which are herein incorporated by reference.
The basis of this assay lies in the well-defined action of androgenic agents on the maintenance and growth of muscle tissues and sexual accessory organs in animals and man. […] J. Anat. […] Ital. Biol. Sper. […] II. […] Ital. Biol. Sper. 42, 1600 (1966); A. Boris et al., Steroids 15, 61 (1970). As described above, the effects of androgens on maintenance of male sexual accessory organs, such as the prostate and seminal vesicles, is well described. Castration results in rapid involution and atrophy of the prostate and seminal vesicles. This effect can be reversed by exogenous addition of androgens. […]

Data set [1] concerns wild type AR (MDA 453 cells). The note with it: read-out: Kd for [3H]-DHT, Scatchard analysis. Here is the method:
For the whole-cell binding assay, human LNCaP cells (T877A mutant AR) or MDA 453 (wild type AR) in 96-well microtiter plates containing RPMI 1640 or DMEM supplemented with 10% charcoal stripped CA-FBS (Cocaleco Biologicals) respectively, were incubated at 37° C. to remove any endogenous ligand that might be complexed with the receptor in the cells.
For the saturation analysis, the difference between the total binding and the non-specific binding, was defined as specific binding. […] See e.g. D. Rodbard, Mathematics and statistics of ligand assays: an illustrated guide: In: J. Langon and J. J. Clapp, eds., Ligand Assay, Masson Publishing U.S.A., Inc., New York, pp. 45-99, (1981), the disclosure of which is herein incorporated by reference.
Two replicates were used for each sample.

Broadly, the melting point is the temperature, or range, at which the solid turns liquid. In general, pKd refers to the negative decadic logarithm of the Kd, by convention in mol/L.

pKd: −log10 of the molar value.

With `N#Cc1ccc(N2C(=O)N/C(=C\c3ccccc3O)C2=O)c2ccccc12`, the melting point fell in the range of 251 to 252 °C.
For the molecule `CCC(=O)O[C@H]1CC[C@H]2[C@@H]3CCC4=CC(=O)CC[C@]4(C)[C@H]3CC[C@]12C` [TP, testosterone propionate], the “potency relative to free T” value on AR (TP versus free T) is listed as 10-30 fold. Besides, the “EC50 (increase in organ weight)” value on AR (castrated rats, dosing for 3 days) was approximately 0.03 mg.
`N#Cc1ccc(N2C(=O)N/C(=C\c3ccc(O)cc3)C2=O)c2ccccc12` registered a melting point of more than 275 °C.
Regarding “tritiated dihydrotestosterone [[^3H]-DHT]”, the pKd in data set [1] is 9.15.
